41 compounds from ChEMBL document CHEMBL3507680, “University of Dundee, Gates Library screen for HepG2 cell viability” can be followed below.

The nature of this data set: Human HepG2 cell viability assay in 384 well format. More on the design: dose 125 nL, time 70.5 hour; cytotoxicity at 70.5 h: concentration not given beside the values. Particulars: HepG2 cells, read-out: Inhibition. In kind it is toxicity, cell-based.

SMILES strings stand for the structures.

Regarding `O=C(Cc1cccs1)NCC1(O)CCSC1` (stereo unspecified), the cytotoxicity at 70.5 h is -5.51%.
Consider `Cc1cccc(NC(=O)CN(C)C(=O)c2ccc(-n3cccc3)nc2)n1`, for which the cytotoxicity at 70.5 h was -4.2%.
As to `O=C(c1ccco1)N(CC(F)(F)F)C1CCCOC1` (stereo unspecified), the cytotoxicity at 70.5 h was -2.62%.
On to `O=C(NC1CCC(O)CC1)c1cnc2c(cnn2C2CCCC2)c1` (stereo unspecified), for which the cytotoxicity at 70.5 h is -0.508%.
For `Cc1noc(C)c1CNc1cccc(C(=O)N(C)c2ccccc2)c1`, the cytotoxicity at 70.5 h stood at 14.2%.
As for `COCC(C)NC(=O)CN1CCC2(CC1)OCCO2` (stereo unspecified), the cytotoxicity at 70.5 h is -3.81%.
Consider `COC(=O)CN(CC1CCOC1)C1CC1` (stereo unspecified), for which the cytotoxicity at 70.5 h was -3.42%.
In the case of `CCOC(=O)CCCN1CCCC(C(=O)Nc2ccc(Cl)cn2)C1` (stereo unspecified), the cytotoxicity at 70.5 h was 15.1%.
With `CCC(C)NC(=O)CN1CCC2(CC1)OCCO2` (stereo unspecified) the figure was 3.04%; with `O=C(Nc1nccs1)C1CCCN1Cc1ccccn1` (stereo unspecified), -5.74%.
Regarding `CC(C)(O)CN1CCN(C(=O)c2cccn2Cc2cccnc2)CC1`, the cytotoxicity at 70.5 h is -8.17%.
With `Cc1nnc(NC(=O)NCC(C)N2CCOCC2)s1` (stereo unspecified) the figure was -11%.
As to `CCCn1cc(NC(=O)c2ccc(NC(=O)NC3CC3)cc2)ccc1=O`, the cytotoxicity at 70.5 h is -10.8%.
For the compound `CC(=O)Nc1ccc(CNCc2ccc(CS(C)(=O)=O)cc2)cc1`, the cytotoxicity at 70.5 h is 15.3%.
The figure for `O=C(c1sccc1C1CC1)N1CCN(c2ncccn2)CC1` is -0.605%.
With `CCCn1cc(NC(=O)c2ccncc2)ccc1=O`, the cytotoxicity at 70.5 h was -8.23%.
As for `O=C(c1sccc1C1CC1)N1CCN(c2cnccn2)CC1`, the cytotoxicity at 70.5 h is -11.8%.
Regarding `CN(Cc1cccc(C#N)c1)c1ncc(C(N)=O)cc1Cl`, the cytotoxicity at 70.5 h was -8.78%.
In the case of `CCN1CCN(C(C)CNC(=O)Nc2nc3ccccc3s2)CC1` (stereo unspecified), the cytotoxicity at 70.5 h was -7.3%.
On to `O=C(c1sccc1C1CC1)N1CCCN(c2cccnn2)CC1`, for which the cytotoxicity at 70.5 h was -7.16%.
As to `COC(=O)c1sc2cccc(F)c2c1CNC(=O)C1CCOC1` (stereo unspecified), the cytotoxicity at 70.5 h was -2.33%.
With `Cc1csc(C2(NC(=O)CCNC(=O)C(C)(C)C)CCCC2)n1`, the cytotoxicity at 70.5 h came out at 0.031%.
The figure for `COC(=O)C1CN(Cc2nc(C(C)(C)C)cs2)C[C@@H](C)O1` (stereo partly specified) is -7.31%; for `CC(=O)Nc1ccc(CNc2cccc(CS(C)(=O)=O)c2)cc1` it is -3.91%.
For `CCOc1cncc(N2CCN(c3ccccc3O)CC2)n1`, the cytotoxicity at 70.5 h is 13.6%.
As to `O=C(c1ccc(-n2cccn2)c(F)c1)N1CCCN2CCCC2C1` (stereo unspecified), the cytotoxicity at 70.5 h is -8.24%.
For the compound `CC(C)(C)c1cnc(CN2CCC(CO)CC2)o1`, the cytotoxicity at 70.5 h was -3.87%.
With `CCOCC(=O)NC1(c2nc(C)cs2)CCCC1`, the cytotoxicity at 70.5 h is -2.89%.
For the compound `CCc1nc2c(s1)C(N(C)C(C)=O)CCC2` (stereo unspecified), the cytotoxicity at 70.5 h is -7.14%.
The figure for `COc1ccc(CCN(C)CCS(=O)(=O)c2ccc(Cl)cc2)cc1OC` is -13.8%; for `CCNc1ccnc(CN2CCCC2C(=O)Nc2nccs2)c1` (stereo unspecified) it is 8.54%; for `O=C(c1ccc(F)c(Br)c1)N1CCCN2CCCC2C1` (stereo unspecified) it is -8.34%.
With `COc1c(C2CCCN2CC(=O)N2CCCCC2)c(C)nn1C` (stereo unspecified) the figure was 4.89%; with `CC(C)N(C)C(=O)COc1ccc(-c2noc(C3CCCO3)n2)cc1` (stereo unspecified), 5.4%; with `CC(C)NC(=O)c1cccc(NC(=O)CCCc2nc(C(C)C)no2)c1`, 5.5%.
Take `CCN(CC(=O)Nc1cc(Cl)ccc1C)C(=O)c1ccc(=O)[nH]n1`: the cytotoxicity at 70.5 h is -2.64%.
As for `CC(Nc1cccc2c1OCCO2)C(=O)NC(N)=O` (stereo unspecified), the cytotoxicity at 70.5 h is -2.31%.
Take `O=C(Nc1ccc2c(ccn2CCN2CCOCC2)c1)c1ccccn1`: the cytotoxicity at 70.5 h was -3.62%.
The figure for `CCc1nc(C(=O)N(CC)CC(=O)N(C)C)nn1-c1ccccc1Cl` is -2.5%.
With `COC(=O)CNC(=O)c1scnc1C`, the cytotoxicity at 70.5 h was -1.16%.
With `CNC(=O)CNCc1c[nH]nc1-c1cc2ccccc2o1` the figure was -1.2%.
